The assay has as its target T1, Human IP6K1 (Homo sapiens, UniProt Q92551).
T1 construct: GST (N, cleaved yes); made in house; host or cells: C43 E. coli, pGEX-6P-2
Briefly: IP6K1 high-throughput screen of the Sigma LOPAC (ADP-Glo Max, single point).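 Note: final compound concentration 10µM in 5% DMSO.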 The assay is classed as biochemical.

Where [1] appears, read: LOPAC single-point screen, ADP-Glo Max raw signal per well.
Where [2] appears, read: LOPAC single-point screen, Z-score against plate average and StDev.
Where [3] appears, read: LOPAC single-point screen, Z-score from raw signal with plate average and StDev.
The mark [4] stands for this setting: Sigma LOPAC single-point screen, ADP-Glo Max raw signal per well.
[5] abbreviates: Sigma LOPAC single-point screen, Z-score from plate average and StDev.
[6] abbreviates: LOPAC single-point screen, ADP-Glo Max luminescence raw signal per well.
[7] abbreviates: LOPAC single-point screen, Z-score relative to plate average and StDev.
The mark [8] stands for this setting: LOPAC single-point screen, Z-score from plate average and StDev.

The record followed here is article PMC5706701, “Development of a homogenous high-throughput assay for inositol hexakisphosphate kinase 1 activity” (PLoS ONE, 2017).

Counter-ions that a name gives are not always drawn. Like-named read-outs stand apart in the source and are kept apart here.

T1 sequence (Q92551 whole entry): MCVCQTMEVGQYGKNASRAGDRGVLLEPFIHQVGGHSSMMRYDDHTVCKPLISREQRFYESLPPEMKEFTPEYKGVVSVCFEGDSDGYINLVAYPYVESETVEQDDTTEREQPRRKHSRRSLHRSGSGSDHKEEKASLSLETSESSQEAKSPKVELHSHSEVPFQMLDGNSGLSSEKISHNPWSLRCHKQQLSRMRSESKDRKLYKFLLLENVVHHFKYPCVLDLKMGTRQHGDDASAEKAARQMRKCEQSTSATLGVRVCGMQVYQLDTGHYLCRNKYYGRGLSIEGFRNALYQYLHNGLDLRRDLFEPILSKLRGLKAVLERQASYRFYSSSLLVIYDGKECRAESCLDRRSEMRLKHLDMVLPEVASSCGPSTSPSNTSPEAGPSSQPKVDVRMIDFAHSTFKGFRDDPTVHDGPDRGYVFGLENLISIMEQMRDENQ

Take `CC(C)(C)c1cc(C=C(C#N)C#N)cc(C(C)(C)C)c1O` [Tyrphostin A9]: the “Raw Signal” value under setting [1] turned out to be 55633. The same compound yielded a Z-score under setting [2] of -0.07593.
In the case of `CC(=O)c1c(O)c(C)c(O)c(Cc2c(O)c3c(c(C(=O)/C=C/c4ccccc4)c2O)OC(C)(C)C=C3)c1O` [Rottlerin], the “Raw Signal” value under setting [1] came to 55469. For the same compound, the Z-score under setting [3] is recorded as -0.1078.
As to R(-)-Me5, under setting [1], the “Raw Signal” value worked out at 53002. The Z-score under setting [3] was -0.2338.
In the case of `CSc1nc(N)c2ncn([C@@H]3O[C@H](COP(=O)([O-])OP(=O)([O-])OP(=O)([O-])[O-])[C@@H](O)[C@H]3O)c2n1.[Na+].[Na+].[Na+].[Na+]`, under setting [1], the “Raw Signal” value is 58230. The compound further yielded a Z-score under setting [2] of 0.05581.
As to `CC1CCN=C(N)S1.Cl` (racemic) [(±)-AMT hydrochloride], under setting [4], the “Raw Signal” value is 65458. Further, under setting [5], the Z-score stood at 1.329.
Taken in the same sequence, the figures for `CCCN(CCC)C(=O)Cc1c(-c2ccc(Cl)cc2)nc2c(Cl)cc(Cl)cn12` [CB34] were 60254 and 0.4123.
As for `Cc1nccc2c1[nH]c1ccccc12` [Harmane], under setting [6], the “Raw Signal” value is recorded as 51802. For the same compound, under setting [7], the Z-score was -0.6834.
Take `Fc1ccc(C(c2ccc(F)cc2)N2CCN(C/C=C/c3ccccc3)CC2)cc1` [Flunarizine dihydrochloride]: the “Raw Signal” value under setting [4] was 58645. The Z-score under setting [5] is on record as 0.7063.
For `CN(Cc1cnc2nc(N)nc(N)c2n1)c1ccc(C(=O)N[C@@H](CCC(=O)O)C(=O)O)cc1` [(-)Amethopterin], under setting [4], the “Raw Signal” value worked out at 61362. In addition, the Z-score under setting [5] is 0.6074.
For `Cc1nc2n(c(=O)c1CCN1CCC(c3noc4cc(F)ccc34)CC1)CCCC2` [Risperidone], under setting [6], the “Raw Signal” value came out at 53532. Also, under setting [7], the Z-score is reported as -0.4841.
With `N[C@]1(C(=O)O)CC[C@H](C(=O)O)C1` (racemic) [trans-(±)-ACPD], under setting [1], the “Raw Signal” value turned out to be 56973. Under setting [3], this compound came in with a Z-score of -0.1656.
As to `CCOC(=O)[N-]c1cn(N2CCOCC2)n[o+]1` [Molsidomine], the “Raw Signal” value under setting [4] worked out at 60839. Also, the Z-score under setting [5] came out at 1.083.
Taken in the same sequence, the figures for `O=c1c(-c2ccc(O)cc2)coc2cc(O)ccc12` [Daidzein] were 57311 and 0.4354.
On to `COC(=O)C1=CCCN(C)C1` [Arecoline hydrobromide], for which, under setting [1], the “Raw Signal” value is recorded as 57110. The compound also showed a Z-score under setting [3] of -0.1414.
For `Cl.FC(F)(F)c1cc(CO[C@H]2CCCN[C@H]2c2ccccc2)cc(C(F)(F)F)c1` [L-733,060 hydrochloride], in that order: 52038 and -0.3958.
On to `CC(=O)N[C@@H](Cc1c[nH]c2ccccc12)C(=O)OCc1cc(C(F)(F)F)cc(C(F)(F)F)c1` [L-732,138], for which the “Raw Signal” value under setting [6] is listed as 53722. Also, the Z-score under setting [7] was -0.7382.
Consider `CC(N)=O` [Acetamide], for which the “Raw Signal” value under setting [4] is 63288. For the same compound, the Z-score under setting [5] was found to be 0.9467.
As to `CC(C)[C@H](CO)Nc1nc(Nc2cccc(Cl)c2)c2ncn(C(C)C)c2n1` [Purvalanol A], the “Raw Signal” value under setting [1] was 54135. The same compound came in with a Z-score under setting [2] of -0.04344.
For the compound `[N-]=[N+]=Nc1ccc(C(=O)CSC[C@H](NC(=O)CC[C@H](N)C(=O)O)C(=O)NCC(=O)O)cc1` [S-(p-Azidophenacyl)glutathione], under setting [1], the “Raw Signal” value is given as 57217. Besides, the Z-score under setting [3] was -0.1226.
Consider `CCCc1c(-c2ccc(O)cc2)nn(-c2ccc(O)cc2)c1-c1ccc(O)cc1`, for which the “Raw Signal” value under setting [6] was found to be 52149. Under setting [7], the Z-score is on record as -0.6129.
As for `COc1cc2nc(N3CCN(C(=O)C4CCCO4)CC3)nc(N)c2cc1OC` (centres unmarked) [Terazosin hydrochloride], the “Raw Signal” value under setting [1] is 54152. Under setting [3], this compound came in with a Z-score of -0.3637.
`C[N+](C)(C)CCOC(N)=O` [Carbachol]: the “Raw Signal” value under setting [4] worked out at 62361. Besides, under setting [5], the Z-score worked out at 0.7834.
Turning to `O=C1OC(=O)[C@H]2[C@@H]1[C@@H]1CC[C@H]2O1` [Norcantharidin], the “Raw Signal” value under setting [1] is reported as 52142. Under setting [3], this compound yielded a Z-score of -0.3783.
On to `Nc1nc2c(ncn2COCCO)c(=O)[nH]1` [Acyclovir], for which the “Raw Signal” value under setting [6] was determined as 53270. The compound also returned a Z-score under setting [7] of -0.8178.
Consider `Cn1c(=O)c2[nH]c(-c3ccc(S(=O)(=O)O)cc3)nc2n(C)c1=O` [8-(p-Sulfophenyl)theophylline], for which the “Raw Signal” value under setting [1] is 56907. Besides, under setting [3], the Z-score was -0.1772.
For `Cc1scc2c1N(C(=O)CN1CCN(C)CC1)c1ccccc1NC2=O` [Telenzepine dihydrochloride], the “Raw Signal” value under setting [4] is reported as 58050. Besides, the Z-score under setting [5] was 0.3937.
For `Cl.N[C@@H](Cc1cnc[nH]1)C(=O)O` [L-Histidine hydrochloride], in that order: 61451 and 1.276.
Turning to `O=C(O)C=Cc1c[nH]cn1` [4-Imidazoleacrylic acid], under setting [1], the “Raw Signal” value worked out at 54766. The Z-score under setting [3] was -0.2444.
For `Cl.c1ccc2sc(C3(N4CCCCC4)CCCCC3)cc2c1` [BTCP hydrochloride], in that order: 55871 and -0.3597.
Consider `Cn1c(=O)c2[nH]cnc2n(C)c1=O.Cn1c(=O)c2[nH]cnc2n(C)c1=O.NCCN` [Aminophylline ethylenediamine], for which, under setting [1], the “Raw Signal” value is on record as 57914. Under setting [2], this compound came in with a Z-score of 0.0001585.
With `C[C@@H]1O[C@H](C[N+](C)(C)C)CS1.[I-]` [OXA-22 iodide], under setting [4], the “Raw Signal” value is listed as 57438. In addition, the Z-score under setting [5] is 0.4612.
With `N.N.N.N.N.N.N.N.N.N.N.N.N.N.[Cl-].[Cl-].[Cl-].[Cl-].[Cl-].[Cl-].[O-2].[O-2].[Ru+3].[Ru+3].[Ru+4]` [Ruthenium red], under setting [6], the “Raw Signal” value was 52989. Moreover, the Z-score under setting [7] is given as -0.5896.
In the case of `O=C(CCc1ccc(O)cc1)c1c(O)cc(O)cc1O` [Phloretin], under setting [4], the “Raw Signal” value is recorded as 58655. Moreover, under setting [5], the Z-score stood at 0.5112.
For the compound `Br.Br.N=C(N)SCCN`, the “Raw Signal” value under setting [1] came to 59514. Moreover, under setting [2], the Z-score is given as 0.282.
As for `N[C@H](C(=O)O)c1cc(O)cc(O)c1` [(S)-3,5-Dihydroxyphenylglycine], the “Raw Signal” value under setting [6] was 63204. For the same compound, the Z-score under setting [8] was 1.632.
`Oc1ccc(C2CNCCc3c2cc(O)c(O)c3Cl)cc1` (centres unmarked) [Fenoldopam bromide]: the “Raw Signal” value under setting [4] came to 59808. Further, the Z-score under setting [5] is 0.9425.
Taken in the same sequence, the figures for `Clc1ccccc1C(c1ccccc1)(c1ccccc1)n1ccnc1` [Clotrimazole] were 61041 and 0.5509.
With `C[C@](N)(Cc1ccc(O)cc1)C(=O)O` [L-alpha-Methyl-p-tyrosine], under setting [1], the “Raw Signal” value turned out to be 53929. Besides, under setting [2], the Z-score is reported as -0.07805.
For the compound `Br.COc1ccc(-c2ccc(=N)n(CCCC(=O)O)n2)cc1` [SR-95531], the “Raw Signal” value worked out at 59972 and the Z-score came out at 0.7671.
For `Nc1nc2ccc(Cl)cc2c2nc(-c3ccco3)nn12` [CGS-15943], in that order: 60608 and 1.105.
As for `CCCn1c(=O)c2[nH]c(C3CCCC3)nc2n(CCC)c1=O` [8-Cyclopentyl-1,3-dipropylxanthine], under setting [1], the “Raw Signal” value was 55782. The compound further yielded a Z-score under setting [2] of 0.1249.
As for `CC(=O)OC(C)C[N+](C)(C)C.[Cl-]` (stereo not drawn) [Acetyl-beta-methylcholine chloride], the “Raw Signal” value under setting [6] is recorded as 54689. Further, under setting [7], the Z-score is given as -0.5679.
Regarding `C[C@]12CCC(=O)C=C1CC[C@@H]1[C@@H]2CC[C@@]2(C)[C@H]1CC[C@]2(O)C(=O)CO` [Cortexolone], the “Raw Signal” value under setting [1] came to 55575. Also, under setting [2], the Z-score is recorded as -0.08719.
For `CC(C)NC[C@H](O)c1ccc(O)c(O)c1.O=C(O)C(O)C(O)C(=O)O` [R(-)-Isoproterenol (+)-bitartrate], the “Raw Signal” value under setting [6] is reported as 62194. This compound yielded a Z-score under setting [8] of 1.427.
Consider `Cc1ccc(=O)n(-c2ccccc2)c1` [Pirfenidone], for which the “Raw Signal” value under setting [1] was determined as 52089. The Z-score under setting [3] is recorded as -0.3872.
In the case of `O=C(O)CCCCC1CCSS1` (racemic) [(±)-alpha-Lipoic Acid], the “Raw Signal” value under setting [4] turned out to be 59328. Under setting [5], this compound came in with a Z-score of 0.6419.
For `O=C(O)c1cccnc1C(=O)O` [Quinolinic acid], the “Raw Signal” value under setting [6] was 51489. The Z-score under setting [7] is listed as -0.881.
With `CCCN(CCC)CCc1ccc(O)c(O)c1` [Dipropyldopamine hydrobromide], the “Raw Signal” value under setting [6] is 52448. The Z-score under setting [7] is reported as -0.5522.
Take `C[C@@H](NC(=O)/C(C#N)=C/c1ccc(O)c(O)c1)c1ccccc1` [Tyrphostin AG 527]: under setting [1], the “Raw Signal” value turned out to be 54153. The Z-score under setting [3] is reported as -0.3635.
As to `COC(=O)C(C)(N)Cc1ccc(O)cc1.Cl` (racemic), the “Raw Signal” value under setting [1] was 52897. This compound also yielded a Z-score under setting [3] of -0.2515.
Taken in the same sequence, the figures for `Cl.O=C(OC1CCN(CCCl)CC1)C(c1ccccc1)c1ccccc1` were 54369 and -0.1621.
As to `CC(=O)NCCc1ccc(O)c(O)c1.O` [N-Acetyldopamine monohydrate], under setting [4], the “Raw Signal” value was found to be 60782. Moreover, under setting [5], the Z-score stood at 0.5053.
`Nc1c(S(=O)(=O)O)cc(Nc2ccc(Nc3nc(Cl)nc(Nc4cccc(S(=O)(=O)O)c4)n3)c(S(=O)(=O)O)c2)c2c1C(=O)c1ccccc1C2=O` [Reactive Blue 2]: the “Raw Signal” value under setting [6] was 20201. This compound gave a Z-score under setting [7] of -6.96.
As to `CCCn1c(C)c(C(=O)c2cccc3ccccc23)c2ccccc21` [JWH-015], under setting [1], the “Raw Signal” value was determined as 54462. This compound registered a Z-score under setting [2] of 0.01151.
Consider `FC(F)(F)c1ccccc1-n1ccnc1` [1-[2-(Trifluoromethyl)phenyl]imidazole], for which, under setting [4], the “Raw Signal” value came to 60208. The compound also came in with a Z-score under setting [5] of 0.8129.
